According to patent publication US9708305B2, “Substituted 1,2,3,4-tetrahydroisoquinoline derivatives for the treatment of hormone-dependent diseases” (UNIVERSITÉ LAVAL, priority 2013, dated 2017):
Each block holds one compound with its values, some of them ahead of it.

Tests used:
[1] = system: AR+ tissues (prostate and seminal vesicles); details: cited from earlier work
[2] = system: uterus weight of ovariectomized mice (OVX); details: cited from earlier work
T-47D cells [3] = assay: T-47D cell proliferation (estrogenicity / cytotoxicity), MTS; format: cell-based
Method: The library of phenolic compounds described above was tested on estrogen-sensitive breast cancer T-47D cells.
In Table 1, cell proliferation of control cells is set to 100%. Results are expressed as mean±SD of one experiment in triplicate.
(§1) CellTitter 96® Aqueous One Solution Cell Proliferation Assay was used as an indirect colorimetric measurement of cell proliferation according to the manufacturer's instructions. Briefly, after the treatments, 20 μL of MTS solution was added to each well (100 μL) of the plates and incubated at 37° C. for 2 h (Saos-2) or 4 h (T-47D). The absorbance at 490 nm was then measured with a Thermo max microplate reader (Molecular Devices, Sunnyvale, Calif.). The control (culture media+DMSO) is set to 100% of cell proliferation.
(§2) The cells were plated in 96-well plates at a density of 3 000 cells/well and allowed to attach for 48 h. After this pre-incubation, the inhibitors and the reference compounds diluted in fresh culture media were added to the wells and replaced every 2 days for 7 days of treatment.

T-47D cells [4] = assay: T-47D cell proliferation in presence of E2 (antiestrogenicity); format: cell-based
Method: as §1, §2

[5] = system: alkaline phosphatase (ALP) activity in Saos-2 cells; assay: Alkaline phosphatase (ALP) activity in Saos-2 cells; format: cell-based
Method: ALP is an enzyme that releases inorganic phosphate from different intracellular substrates such as pyrophosphate and pyridoxal 5′-phosphate.^63 The inorganic phosphate is used in the formation of hydroxyapatite crystals which are then inserted in the extracellular protein scaffold to form the solid part of bone tissue.
Saos-2 cells were treated similarly as reported in the cell proliferation assay. The cells were seeded at a density of 2 000 cells/well and were treated with the inhibitors and the reference compounds for 3 days. The alkaline phosphatase (ALP) activity was measured using Sensolyte® pNPP Alkaline Phosphatase Assay Kit *Colorimetric* (AnaSpec, Fremont, Calif.) following the manufacturer's protocol. Briefly, after the 3 days of treatment, the cells were washed twice with washing buffer (provided with the kit) and lysed with 0.2% Triton X-100. The cell lysates were centrifuged and the supernatants were used to determine the ALP activity. The supernatants were deposed in a 96-well plate and incubated 30 min with a p-nitrophenyl phosphate solution (provided with the kit). The absorbance at 405 nm was measured with a Thermo max microplate reader (Molecular Devices, Sunnyvale, Calif.). The control (culture media+DMSO) is set to 100% of alkaline phosphatase activity.

steroid sulfatase (STS) = target: T1, steroid sulfatase (STS) (Homo sapiens, UniProt P08842); assay: Steroid sulfatase (STS) inhibition, [3H]-E1S to [3H]-E1, homogenate of transfected HEK-293 cells; format: biochemical; details: transformation of E1S into E1 in homogenate of HEK-293 cells transfected with STS; read-out: Steroid Sulfatase Inhibition IC50
T1 construct: expressed in transfected cells; host or cells: HEK-293 cells stably transfected with STS (G418 selection), obtained from Dr. Van Luu-The; used as freeze-thaw homogenate
T1 sequence (P08842 22-583): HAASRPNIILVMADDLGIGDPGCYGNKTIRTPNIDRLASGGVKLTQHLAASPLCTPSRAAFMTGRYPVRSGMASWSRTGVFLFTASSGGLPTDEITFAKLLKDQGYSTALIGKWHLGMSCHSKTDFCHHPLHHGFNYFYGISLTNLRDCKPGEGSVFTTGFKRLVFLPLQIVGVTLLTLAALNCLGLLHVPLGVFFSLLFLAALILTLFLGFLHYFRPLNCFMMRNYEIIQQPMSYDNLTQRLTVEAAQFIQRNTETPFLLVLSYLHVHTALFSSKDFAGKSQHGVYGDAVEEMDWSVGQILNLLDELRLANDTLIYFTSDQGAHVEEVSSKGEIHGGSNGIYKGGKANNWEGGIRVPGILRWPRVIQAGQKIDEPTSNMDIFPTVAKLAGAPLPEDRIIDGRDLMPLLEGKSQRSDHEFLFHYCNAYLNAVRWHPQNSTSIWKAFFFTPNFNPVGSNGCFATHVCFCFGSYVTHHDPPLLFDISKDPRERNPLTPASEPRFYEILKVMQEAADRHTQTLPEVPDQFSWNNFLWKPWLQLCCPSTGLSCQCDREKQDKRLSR
Method: To test STS inhibition, we used homogenated HEK-293 cells overexpressing STS and evaluated the capacity of our compounds to inhibit the conversion of [^3H]-E1S into [^3H]-E1. […] This is outlined in FIG. 5.
An enzymatic assay previously described was used for the inhibition of the transformation of estrone sulfate (E1S) to estrone (E1) by STS.^72 Briefly, the transfected HEK-293 cells were homogenized by repeated (5 times) cycles of freezing (−80° C.) and thawing on ice (4° C.). The homogenates were then incubated for 2 h at 37° C. (shaking water bath) with or without inhibitors (0.01 μM-1 μM) in presence of [^3H]-E1S (9 nM), adjusted to 1 μM with E1S, in a Tris-acetate buffer (pH 7.4) containing 5 mM EDTA and 10% glycerol. After the incubation, 1 mL of xylene was added to each tube and the solutions were then centrifuged at 3000 rpm for 20 min to separate the organic ([^3H]-E1) and aqueous ([^3H]-E1S) phases. Once 500 μL of each phase was added to 10 mL of Biodegradable Counting Scintillant, the radioactivity of samples was recorded using a Wallac 1411 Liquid Scintillation Counter. The percentage of inhibition was determined by comparison with the control (buffer+homogenate+[^3H]-E1S) which was set to 0% of inhibition. IC50 value was obtained using GraphPad Prism 5 (GraphPad Software, La Jolla, Calif.).

[6] = system: osteoblast-like Saos-2 cells; assay: Saos-2 cell proliferation, MTS; format: cell-based; details: for Bone cells Saos-2 (ER+) SERM effect Proliferative activity (%): in percentage of control (100%; 0.1 nM of estradiol)
Excerpt: First, we wanted to evaluate their effect on cell proliferation. […] This is outlined in FIG. 8A. […] One of the main roles of osteoblasts in bone tissue is to construct a calcified extracellular matrix.^15 As such, bone formation is not principally due to osteoblasts proliferation but rather osteoblasts maturation into mature osteocytes. […] This is outlined in FIG. 8B.
as §1
Saos-2 cells were suspended in phenol-red free McCoy's 5A medium supplemented with 10% charcoal-stripped FBS, penicillin (100 IU/mL) and streptomycin (100 μg/mL). The cells were seeded in 96-well plates at a density of 3 000 cells/well and allowed to attach. After 24 h, the inhibitors and the reference compounds diluted in fresh culture media were added to the wells and replaced every 2 days for 7 days of treatment.

Saos-2 (ER+) cells = assay: Proliferative activity on Saos-2 (ER+) cells, phenol library; format: cell-based; details: 1 μM (stated for reference compounds); 7 days; control 100%
Method: Estrogens are known to have a beneficial effect on bones. […] The phenol derivatives 3′-EO-09 to 3′-EO-11 and 3′-EO-14 to 3′-EO-17 were tested on the osteoblast-like cell line Saos-2 to further evaluate their SERM capacity (FIG. 13A).
The osteoblast-like Saos-2 cells were maintained in culture flasks (175 cm^2 growth area, BD Falcon) at 37° C. in a 5% CO2 humidified atmosphere and grown in McCoy's 5A medium supplemented with 10% fetal bovine serum (FBS), penicillin (100 IU/mL) and streptomycin (100 μg/mL). Penicillin/streptomycin mix, L-Glutamine, normal and charcoal-stripped FBS were purchased from Wisent, Inc. (St-Bruno, QC, Canada), phenol-red free McCoy's 5A was purchased from PromoCell (Heidelberg, Germany). Chemicals tested were first dissolved in DMSO and subsequent dilutions were done in the cell culture medium. The final concentration of DMSO in the culture medium was 0.1% or less. For the proliferation assay, the […] FBS in the culture medium was replaced with 10% charcoal-stripped FBS. The cells were seeded in 96-well plates at a density of 10 000 cells/well and allowed to attach 24 h. After 24 h, the phenolic compounds diluted in culture medium were added to the wells and replaced every 2 days for 7 days of treatment. As reported above, MTS was used as an indirect colorimetric measurement of cell proliferation according to the manufacturer's instructions, except the plate were incubated 2 h instead of 4 h.

[7] = system: alkaline phosphatase activity in Saos-2 cells; assay: Alkaline phosphatase assay (Saos-2 cells), phenol library; format: cell-based; details: 1 nM; control (no treatment) fixed at 100%
Method: We also investigated the effect of selected phenol derivatives on alkaline phosphatase activity in Saos-2 cells (FIG. 13B).
Saos-2 cells were used similarly as reported in the cell proliferation assay. The cells were seeded at a density of 2 000 cells/well and treated for 3 days with each compound to be tested. The alkaline phosphatase (ALP) activity was measured using the Sensolyte® pNPP Alkaline Phosphatase Assay Kit *Colorimetric* (AnaSpec, Freemont, Calif.) following the manufacturer's protocol. Briefly, after three days of treatment, the cells were washed twice with washing buffer (provided with the kit) and lysed with 0.2% Triton X-100. The cell lysates were centrifuged and the supernatants were used to determine ALP activity. The supernatants were deposed in a 96-well plate and incubated for 30 minutes with a p-nitrophenyl phosphate solution (provided with the kit). The absorbance at 405 nm was measured with a Thermo max microplate reader (Molecular Devices, Sunnyvale, Calif.). The control (culture media+DMSO) is set to 100% of alkaline phosphatase activity.

[8] = 1 μM, in % of control (100%; 0.1 nM of estradiol)

SMILES: COc1cc2c(cc1OS(N)(=O)=O)CC[C@@H]1[C@@H]2CC[C@@]2(C)[C@H]1CC[C@@]2(O)Cc1ccccc1 [EM-1913, 3-O-sulfamate 17α-benzyl-2-methoxy-estra-1,3,5(10)-trien-17β-ol]
androgenic effect in the absence of DHEAS ([1]; injected in the absence of DHEAS): No more harmful androgenic effect was detected
effect of DHEAS on the weight of AR+ tissues (prostate and seminal vesicles) ([1]; with DHEAS): block the effect of DHEAS
estrogenic activity: uterus weight of OVX mice ([2]; compound alone): did not stimulate the uterus weight
stimulation of uterine weight induced by E1S in OVX mice ([2]; with E1S): effectively blocked

IC50 (steroid sulfatase (STS)): > 1000 nM
SMILES: Cl.O=C(c1ccc(OCCN2CCCCC2)cc1)c1c(-c2ccc(O)cc2)sc2cc(O)ccc12 [raloxifene, Raloxifene hydrochloride, reference compound]
estrogenic activity on T-47D cells (T-47D cells [3]; 0.01 μM to 5 μM, 7 days): no estrogenic activity
Breast cancer cells T-47D (ER+) Agonist activity (%) (T-47D cells [3]; [8]): 0%
cytotoxicity on T-47D cells (T-47D cells [3]; 5 μM): induced some cytotoxicity
block of E2 stimulation of T-47D proliferation (T-47D cells [4]; 0.01 μM to 1 μM, E2 0.1 nM): able to block the E2 stimulation
Breast cancer cells T-47D (ER+) Antagonist activity (%) (T-47D cells [4]; [8]): 96%
cytotoxicity on T-47D cells in presence of E2 (T-47D cells [4]; 5 μM, E2 0.1 nM): some cytotoxicity
Bone cells Saos-2 (ER+) SERM effect Alkaline phosphatase activity (%) ([5]; 0.1 nM): 86%
stimulation of ALP activity in presence of ICI-164,384 or MPP + PHTPP ([5]; 0.1 nM compound, antagonists 1 μM, 3 days): completely blocked the stimulation
Saos-2 cell proliferation, dose response ([6]; 1 nM to 1 μM, 7 days): apparent dose-dependent response
Bone cells Saos-2 (ER+) SERM effect Proliferative activity (%) ([6]; 0.1 μM): 75%
Bone cells Saos-2 (ER+) SERM effect Proliferative activity (%) ([6]; 1 μM): 83%
proliferation of Saos-2 cells (Saos-2 (ER+) cells): 123%

SMILES: CC/C(=C(\c1ccccc1)c1ccc(OCCN(C)C)cc1)c1ccccc1 [tamoxifen, reference compound]
ALP activity in Saos-2 cells [7]: 143%

SMILES: CCN(Cc1ccc(C(=O)N2CCc3ccc(O)cc3C2)cc1)Cc1ccccn1 [3′-EO-14]
ALP activity in Saos-2 cells [7]: 147%
proliferation of Saos-2 cells (Saos-2 (ER+) cells): 140%

SMILES: CCN(Cc1ccc(F)cc1)Cc1ccc(C(=O)N2CCc3ccc(O)cc3C2)cc1 [3′-EO-17]
ALP activity in Saos-2 cells [7]: 152%
